Measurements: US20250243172A1, “NLRP3 INFLAMMASOME INHIBITORS AND COMPOSITIONS AND USES THEREOF” (VIRGINIA COMMONWEALTH UNIVERSITY, priority 2022, published 2025)
pKd: −log10 of the molar value.

Molecular target: human recombinant NLRP3 protein
Assay: Binding of NSIs to recombinant NLRP3 protein by microscale thermophoresis (Monolith NT.Automated)
Details: MST; His-NLRP3 labeled with RED-tris-NTA dye, 40 min incubation in PBS-T; duplicate reads
Method: Monolith NT. Automated instrument was used to measure the Kd value. A range of concentrations of NSIs were incubated and His-NLRP3 pre-labeled with RED-tris-NTA dye kit (SKU: MO-L018) for 40 min in PBS-T assay buffer (1×PBS with 0.05% Tween® 20). The samples were loaded into NanoTemper® glass capillaries and series of ligand-induced changes in thermophoresis curves were gained using an Excitation power of 80% and a MST power of high. Kd values were calculated using the mass action equation with NanoTemper software from duplicate reads of an experiment.
Table 1 provides exemplary binding affinities of NSIs to human recombinant NLRP3 protein.

SMILES | pKd
COc1ccc(Cl)cc1Cn1cc(-c2ccc(C(=O)N3CCC3)cc2)nn1 [YM-III-11] | 5.52
COc1ccc(Cl)cc1Cn1cc(C(=O)N2CC(F)(F)C2)nn1 [YM-III-12] | 6.01
